Measurements as given in US20230066011A1, “PYRROLOPYRIMIDINE DERIVATIVE, AND PHARMACEUTICAL COMPOSITION FOR PREVENTING OR TREATING PROTEIN KINASE-RELATED DISEASE COMPRISING SAME AS ACTIVE INGREDIENT” (VORONOI CO., LTD., priority 2019, published 2023).

What was measured:
Type in all cases: biochemical
human GST-DYRK1A = target: T1, human GST-DYRK1A (Homo sapiens, UniProt Q13627); test: GST-DYRK1A enzyme inhibition, ADP-Glo kinase assay; details: ATP 10 μM, GST-DYRK1A full length, read-out: DYRK1 IC50
T1 construct: purified human GST-DYRK1A (full length, Thermo Scientifics) enzyme; purchased Thermo Scientifics
Outline: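 Full-length enzyme (10 ng) was incubated with 10 μM ATP and a specific substrate for 1 h at 25 °C in 40 mM Tris-HCl pH 7.4, 20 mM MgCl2, 0.5 mg/mL BSA, 50 μM DTT. Luminescence was read against a solvent control, and IC50 values were derived from 3 data sets.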

human GST-CLK1 = target: T2, human GST-CLK1 (Homo sapiens, UniProt P49759); test: GST-CLK1 enzyme inhibition, ADP-Glo kinase assay; details: ATP 10 μM, GST-CLK1 129-end
T2 construct: purified human GST-CLK1 (129-end, SignalChem) enzyme; purchased SignalChem
Outline: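 ADP-Glo luminescence read-out, relative to untreated solvent control, gave IC50 (nM) from triplicate data sets. Reactions ran an hour at 25° C with 3 ng GST-CLK1 (residues 129-end), 10 μM ATP and specific substrate in Tris-HCl pH 7.4 buffer with MgCl2, BSA and DTT.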

LRRK2 (G2019S) = LRRK2 (G2019S) (Homo sapiens, UniProt Q5S007, G2019S); test: LRRK2 G2019S enzyme inhibition, ADP-Glo kinase assay; set-up: purchased SignalChem L10-12GG; details: ATP 25 μM
Experimental: To evaluate an inhibitory activity of the compound according to the present invention against LRRK2, LRRK2 (G2019S), DYRK1, CLK1, and TTK kinases, experiments were performed as follows.
Each of the Example compounds was reacted with a purified human LRRK2 G2019S (L10-12GG, SignalChem) enzyme to evaluate an ability to inhibit an enzyme using a method as described below. A composition of 40 mM Tris-HCl (pH 7.4), 20 mM MgCl2, 0.5 mg/mL BSA, and 50 μM DTT was used as a reaction buffer, and all reactions of test substances were performed in the reaction buffer. Each of the compounds was diluted […] from a 10 mM DMSO stock using a serial dilution method, and enzyme activities were measured at final compound concentrations of 50, 10, 2, 0.4, 0.08, 0.016, 0.0032, 0.00064, 0.000128, 0.0000256, 0.00000512, and 0.000001024 μM. In the test, purified ATP (25 μM) and an enzyme substrate (0.2 μg) were reacted with a human LRRK2 G2019S (16 ng) enzyme at 25° C. for 2 hours, and the enzyme activities were then determined using an in vitro ADP-Glo™ kinase assay (Promega). An enzyme-activity reaction solution, an ADP-Glo reaction solution, and an enzyme-ability detection solution were reacted at a ratio of 2:2:1 to measure a degree of inhibition of the enzyme activity with luminescence. The degree of inhibition of the enzyme activity according to the treatment concentration of each of the compounds was calculated based on the fluorescence of the enzyme activity of the solvent control which was not treated with the compound. In this case, the concentration of each of the compounds inhibiting 50% of the enzyme activity was determined to be an IC50 (nM) value, and calculated using Prism (Version 5.01; GraphPad) software.

T2 sequence (P49759 129-484 limits assumed): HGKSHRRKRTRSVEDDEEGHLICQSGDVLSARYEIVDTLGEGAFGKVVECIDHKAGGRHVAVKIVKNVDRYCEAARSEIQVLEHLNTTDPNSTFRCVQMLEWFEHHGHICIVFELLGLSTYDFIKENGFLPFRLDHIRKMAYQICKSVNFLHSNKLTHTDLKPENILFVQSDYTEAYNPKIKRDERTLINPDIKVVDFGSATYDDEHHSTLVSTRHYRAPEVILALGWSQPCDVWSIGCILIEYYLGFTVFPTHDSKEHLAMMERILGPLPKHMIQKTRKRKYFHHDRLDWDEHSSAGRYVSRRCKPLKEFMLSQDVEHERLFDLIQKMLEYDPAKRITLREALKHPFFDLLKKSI
LRRK2 (G2019S), sequence (Q5S007 970-2527 G2019S limits assumed): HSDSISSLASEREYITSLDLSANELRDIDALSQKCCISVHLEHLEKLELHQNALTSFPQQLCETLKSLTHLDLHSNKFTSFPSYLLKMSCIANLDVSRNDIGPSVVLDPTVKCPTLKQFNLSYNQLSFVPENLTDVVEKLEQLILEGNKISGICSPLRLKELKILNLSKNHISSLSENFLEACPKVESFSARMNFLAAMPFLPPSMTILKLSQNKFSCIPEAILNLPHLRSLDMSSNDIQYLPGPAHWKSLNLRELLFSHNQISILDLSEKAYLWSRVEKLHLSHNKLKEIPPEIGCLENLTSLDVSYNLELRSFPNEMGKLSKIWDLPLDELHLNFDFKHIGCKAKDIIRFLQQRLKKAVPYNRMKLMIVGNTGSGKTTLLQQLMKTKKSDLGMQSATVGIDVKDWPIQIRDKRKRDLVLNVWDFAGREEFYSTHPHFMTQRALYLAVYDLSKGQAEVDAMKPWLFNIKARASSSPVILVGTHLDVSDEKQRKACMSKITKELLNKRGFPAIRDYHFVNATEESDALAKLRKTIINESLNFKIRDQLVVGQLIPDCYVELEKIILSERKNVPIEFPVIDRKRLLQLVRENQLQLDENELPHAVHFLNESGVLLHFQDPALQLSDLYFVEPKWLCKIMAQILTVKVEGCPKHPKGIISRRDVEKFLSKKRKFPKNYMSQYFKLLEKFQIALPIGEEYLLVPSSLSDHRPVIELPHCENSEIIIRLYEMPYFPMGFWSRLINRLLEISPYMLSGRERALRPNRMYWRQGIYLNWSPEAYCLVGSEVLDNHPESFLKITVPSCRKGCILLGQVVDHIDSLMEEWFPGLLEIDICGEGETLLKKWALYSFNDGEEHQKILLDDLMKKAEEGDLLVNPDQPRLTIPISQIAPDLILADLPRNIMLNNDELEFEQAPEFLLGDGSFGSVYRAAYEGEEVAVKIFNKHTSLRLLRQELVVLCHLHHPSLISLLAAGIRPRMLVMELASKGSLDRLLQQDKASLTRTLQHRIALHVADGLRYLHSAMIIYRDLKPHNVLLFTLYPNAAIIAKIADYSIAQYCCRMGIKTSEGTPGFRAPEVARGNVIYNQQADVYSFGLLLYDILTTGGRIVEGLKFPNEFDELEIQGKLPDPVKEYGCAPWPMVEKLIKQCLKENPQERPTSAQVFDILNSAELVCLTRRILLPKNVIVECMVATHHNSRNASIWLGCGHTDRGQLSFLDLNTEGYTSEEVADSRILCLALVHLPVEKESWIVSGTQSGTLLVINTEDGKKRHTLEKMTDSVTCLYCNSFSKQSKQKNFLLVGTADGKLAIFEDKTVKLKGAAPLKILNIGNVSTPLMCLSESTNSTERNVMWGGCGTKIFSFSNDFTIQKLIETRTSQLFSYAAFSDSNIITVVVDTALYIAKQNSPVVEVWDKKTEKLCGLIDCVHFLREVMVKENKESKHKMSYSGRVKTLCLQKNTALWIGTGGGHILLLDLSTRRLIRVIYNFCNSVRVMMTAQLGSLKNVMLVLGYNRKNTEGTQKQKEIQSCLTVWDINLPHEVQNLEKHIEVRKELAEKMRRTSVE

| SMILES | IC50 (human GST-DYRK1A) | IC50 (human GST-CLK1) | IC50 (LRRK2 (G2019S)) |
| --- | --- | --- | --- |
| COc1cc(S(C)(=O)=O)ccc1Nc1nc(NC2CCOCC2)c2cc[nH]c2n1 [Example 30, N^2-(2-methoxy-4-(methylsulfonyl)phenyl)-N^4-(tetrahydro-2H-pyran-4-yl)-7H-pyrrolo[2,3-d]pyrimidine-2,4-diamine 2,2,2-trifluoroacetate] | 0.301 to 1 µM | 0.301 to 1 µM | < 0.1 µM |
| COc1cc(S(=O)(=O)N2CCOCC2)ccc1Nc1nc(NCC2CC2)c2cc[nH]c2n1 [Example 31, N^4-(cyclopropylmethyl)-N^2-(2-methoxy-4-(morpholinosulfonyl)phenyl)-7H-pyrrolo[2,3-d]pyrimidine-2,4-diamine 2,2,2-trifluoroacetate] | 0.301 to 1 µM | 0.301 to 1 µM | < 0.1 µM |
| COc1cc(S(=O)(=O)N2CCC(N3CCOCC3)CC2)ccc1Nc1nc(NCC2CC2)c2cc[nH]c2n1 [Example 32, N^4-(cyclopropylmethyl)-N^2-(2-methoxy-4-((4-morpholinopiperidin-1-yl)sulfonyl)phenyl)-7H-pyrrolo[2,3-d]pyrimidine-2,4-diamine] | 0.301 to 1 µM | 0.301 to 1 µM | < 0.1 µM |
| COc1cc(S(C)(=O)=O)ccc1Nc1nc(NCC2CC2)c2cc[nH]c2n1 [Example 33, N^4-(cyclopropylmethyl)-N^2-(2-methoxy-4-(methylsulfonyl)phenyl)-7H-pyrrolo[2,3-d]pyrimidine-2,4-diamine] | 0.301 to 1 µM | 0.301 to 1 µM | < 0.1 µM |
| COCC(C)(C)Nc1nc(Nc2ccc(S(=O)(=O)N3CCOCC3)cc2OC)nc2[nH]ccc12 [Example 34, N^4-(1-methoxy-2-methylpropan-2-yl)-N^2-(2-methoxy-4-(morpholinosulfonyl)phenyl)-7H-pyrrolo[2,3-d]pyrimidine-2,4-diamine] | 0.301 to 1 µM | 0.301 to 1 µM | < 0.1 µM |
| COCC(C)(C)Nc1nc(Nc2ccc(S(=O)(=O)N3CCC(N4CCOCC4)CC3)cc2OC)nc2[nH]ccc12 [Example 35, N^4-(1-methoxy-2-methylpropan-2-yl)-N^2-(2-methoxy-4-((morpholinopiperidin-1-yl)sulfonyl)phenyl)-7H-pyrrolo[2,3-d]pyrimidine-2,4-diamine] | 0.301 to 1 µM | 0.101 to 0.3 µM | < 0.1 µM |
| COCC(C)(C)Nc1nc(Nc2ccc(S(C)(=O)=O)cc2OC)nc2[nH]ccc12 [Example 36, N^4-(1-methoxy-2-methylpropan-2-yl)-N^2-(2-methoxy-4-(methylsulfonyl)phenyl)-7H-pyrrolo[2,3-d]pyrimidine-2,4-diamine] | 0.301 to 1 µM | 0.301 to 1 µM | < 0.1 µM |
| COc1cc(S(=O)(=O)N2CCC(N3CCOCC3)CC2)ccc1Nc1nc(NCC2CCC2)c2cc[nH]c2n1 [Example 38, N^4-(cyclobutylmethyl)-N^2-(2-methoxy-4-((4-morpholinopiperidin-1-yl)sulfonyl)phenyl)-7H-pyrrolo[2,3-d]pyrimidine-2,4-diamine 2,2,2-trifluoroacetate] | 0.301 to 1 µM | 0.301 to 1 µM | < 0.1 µM |
| COc1cc(S(C)(=O)=O)ccc1Nc1nc(NCC2CCC2)c2cc[nH]c2n1 [Example 39, N^4-(cyclobutylmethyl)-N^2-(2-methoxy-4-(methylsulfonyl)phenyl)-7H-pyrrolo[2,3-d]pyrimidine-2,4-diamine 2,2,2-trifluoroacetate] | 0.301 to 1 µM | 0.301 to 1 µM | < 0.1 µM |
| COc1cc(S(=O)(=O)N2CCOCC2)ccc1Nc1nc(NCC2CCCC2)c2cc[nH]c2n1 [Example 40, N^4-(cyclopentylmethyl)-N^2-(2-methoxy-4-(morpholinosulfonyl)phenyl)-7H-pyrrolo[2,3-d]pyrimidine-2,4-diamine 2,2,2-trifluoroacetate] | 0.301 to 1 µM | 0.301 to 1 µM | 0.301 to 1 µM |
| COc1cc(S(=O)(=O)N2CCC(N3CCOCC3)CC2)ccc1Nc1nc(NCC2CCCC2)c2cc[nH]c2n1 [Example 41, N^4-(cyclopentylmethyl)-N^2-(2-methoxy-4-((4-morpholinopiperidin-1-yl)sulfonyl)phenyl)-7H-pyrrolo[2,3-d]pyrimidine-2,4-diamine 2,2,2-trifluoroacetate] | 0.301 to 1 µM | 0.301 to 1 µM | < 0.1 µM |
| COc1cc(S(C)(=O)=O)ccc1Nc1nc(NCC2CCCC2)c2cc[nH]c2n1 [Example 42, N^4-(cyclopentylmethyl)-N^2-(2-methoxy-4-(methylsulfonyl)phenyl)-7H-pyrrolo[2,3-d]pyrimidine-2,4-diamine 2,2,2-trifluoroaceate] | 0.301 to 1 µM | 0.301 to 1 µM | 0.101 to 0.3 µM |

The next lines start with the values.

| IC50 (human GST-DYRK1A) | IC50 (human GST-CLK1) | IC50 (LRRK2 (G2019S)) | SMILES |
| --- | --- | --- | --- |
| 0.301 to 1 µM | 0.301 to 1 µM | < 0.1 µM | COc1cc(S(=O)(=O)N2CCOCC2)ccc1Nc1nc(NCC2CCC2)c2cc[nH]c2n1 [Example 37, N^4-(cyclobutylmethyl)-N^2-(2-methoxy-4-(morpholinosulfonyl)phenyl)-7H-pyrrolo[2,3-d]pyrimidine-2,4-diamine] |
| 0.301 to 1 µM | 0.301 to 1 µM | < 0.1 µM | CC(C)CNc1nc(Nc2ccc(C(=O)N3CCOCC3)c3c2OCCO3)nc2[nH]ccc12 [Example 44, (8-((4-(isobutylamino)-7H-pyrrolo[2,3-d]pyrimidin-2-yl)amino)-2,3-dihydrobenzo[b][1,4]dioxin-5-yl)(morpholino)methanone] |
| 0.301 to 1 µM | 0.301 to 1 µM | < 0.1 µM | CC(C)Nc1nc(Nc2ccc(C(=O)N3CCOCC3)c3c2OCCO3)nc2[nH]ccc12 [Example 45, (8-((4-(isopropylamino)-7H-pyrrolo[2,3-d]pyrimidin-2-yl)amino)-2,3-dihydrobenzo[b][1,4]dioxin-5-yl)(morpholino)methanone 2,2,2-trifluoroacetate] |
| 0.301 to 1 µM | 0.301 to 1 µM | < 0.1 µM | COCCNc1nc(Nc2ccc(C(=O)N3CCOCC3)c3c2OCCO3)nc2[nH]ccc12 [Example 46, (8-((4-((2-methoxyethyl)amino)-7H-pyrrolo[2,3-d]pyrimidin-2-yl)amino)-2,3-dihydrobenzo[b][1,4]dioxin-5-yl)(morpholino)methanone 2,2,2-trifluoroacetate] |
| 0.301 to 1 µM | 0.301 to 1 µM | < 0.1 µM | O=C(c1ccc(Nc2nc(NC3CCC3)c3cc[nH]c3n2)c2c1OCCO2)N1CCOCC1 [Example 47, (8-((4-(cyclobutylamino)-7H-pyrrolo[2,3-d]pyrimidin-2-yl)amino)-2,3-dihydrobenzo[b][1,4]dioxin-5-yl)(morpholino)methanone] |
| 0.301 to 1 µM | 0.301 to 1 µM | < 0.1 µM | O=C(c1ccc(Nc2nc(NC3CCCC3)c3cc[nH]c3n2)c2c1OCCO2)N1CCOCC1 [Example 48, (8-((4-(cyclopentylamino)-7H-pyrrolo[2,3-d]pyrimidin-2-yl)amino)-2,3-dihydrobenzo[b][1,4]dioxin-5-yl)(morpholino)methanone] |
| 0.301 to 1 µM | 0.301 to 1 µM | < 0.1 µM | O=C(c1ccc(Nc2nc(NC3CCCCC3)c3cc[nH]c3n2)c2c1OCCO2)N1CCOCC1 [Example 49, (8-((4-(cyclohexylamino)-7H-pyrrolo[2,3-d]pyrimidin-2-yl)amino)-2,3-dihydrobenzo[b][1,4]dioxin-5-yl)(morpholino)methanone 2,2,2-trifluoroacetate] |
| 0.301 to 1 µM | 0.301 to 1 µM | < 0.1 µM | O=C(c1ccc(Nc2nc(NC3CCOCC3)c3cc[nH]c3n2)c2c1OCCO2)N1CCOCC1 [Example 52, morpholino(8-((4-((tetrahydro-2H-pyran-4-yl)amino)-7H-pyrrolo[2,3-d]pyrimidin-2-yl)amino)-2,3-dihydrobenzo[b][1,4]dioxin-5-yl)methanone 2,2,2-trifluoroacetate] |
| 0.301 to 1 µM | 0.301 to 1 µM | < 0.1 µM | O=C(c1ccc(Nc2nc(NCC3CC3)c3cc[nH]c3n2)c2c1OCCO2)N1CCOCC1 [Example 53, (8-((4-((cyclopropylmethyl)amino)-7H-pyrrolo[2,3-d]pyrimidin-2-yl)amino)-2,3-dihydrobenzo[b][1,4]dioxin-5-yl)(morpholino)methanone] |
